According to US20250229006A1, “3D PRINTED ARTIFICIAL BILE DUCTS AND MANUFACTURING METHOD THEREOF” (IUCF-HYU (INDUSTRY-UNIVERSITY COOPERATION FOUNDATION …, priority 2024, published 2025):
“Also recorded” adds a separate entry of the source.

Tests used:
[1] = tested on: human chemically derived hepatic progenitors (hCdHs); test: Differentiation of hCdHs into cholangiocytes (hCdH-Chols) on ABD; type: cell-based
From the text: In manufacturing a 3D artificial bile duct disclosed in the present specification, cholangiocytes (hCdH-Chols) derived from human chemically derived hepatic progenitors (hCdHs) were used. Because primary cholangiocytes from humans and other mammals are difficult to isolate and propagate in vitro, human chemically derived hepatic progenitors (hCdHs) were utilized for biliary epithelium modeling. To generate hCdHs, human adult hepatocytes isolated from healthy donor livers were directly reprogrammed into bi-potent progenitors through combinatorial treatment with two small molecules, A83-01 and CHIR99021, in the presence of a hepatocyte growth factor (HGF) as described in a recent publication (Y. Kim, K. Kang, S. B. Lee, D. Seo, S. Yoon, […]. Jang, Y. K. Jung, K. G. Lee, V. M. Factor, J. Jeong, D. Choi, J Hepatol 2019, 70, 97.). A cholangiocyte differentiation protocol was applied when hCdHs reached a passage 3. The hCdHs cultured for 14 days in a cholangiocyte differentiation medium comprising Na-taurocholate (100 uM) and CHIR99021 ([…]) in the presence of a HGF for hCdH-Chols differentiation. The ABDs comprising the inner fibrous layer electrospun using 21 G and 27 G needles by the method of Example 2 were treated with UDCA, and after 50 days, whether differentiation into cholangiocytes using human chemically derived hepatic progenitors (hCdHs) is promoted was evaluated. As a control group, a 3D ABD untreated with UDCA was compared.

[2] = Evaluation of bile stones dissolution capacity; settings: 0.5% UDCA, 37° C. with constant movement, 120 hours, bile stone weights measured every 24 hours; compared with water, EDTA, MTBE, Paclitaxel, Gemcitabine
Procedure: Pigment bile stones were stored in water, 1% ethylenediaminetetraacetic acid (EDTA), 0.5% ursodeoxycholic acid (UDCA), 99% methyl tert-butyl ether (MTBE), 20 μg/ml of Paclitaxel, and 200 uM of Gemcitabine, observed for 120 hours at 37° C. with constant movement, and the weights of the bile stones were measured every 24 hours to evaluate bile stone dissolution capacity (FIG. 1).

C[C@H](CCC(=O)O)[C@H]1CC[C@H]2[C@@H]3[C@@H](O)C[C@@H]4C[C@H](O)CC[C@]4(C)[C@H]3CC[C@]12C [UDCA, ursodeoxycholic acid]
differentiation of hepatic progenitors (hCdHs) into cholangiocytes (hCdH-Chols) ([1]; ABD treated with UDCA, after 50 days, vs 3D ABD untreated with UDCA): promoted differentiation
attachment of cells to the bile ducts by nanofibers of the inner fibrous layer ([1]; UDCA present in inner fibrous layer of ABD vs 3D ABD untreated with UDCA): better attached cells to the bile ducts
expression of cholangiocyte markers in hCdH-Chols ([1]; after a period of differentiation): high levels
bile stone dissolution capacity [2]: dissolved the most; also recorded: significantly increased compared to other solvents
